Source: the NIST ThermoML archive (doi:10.1021/acs.jced.7b01097)
Numbers after ± are expanded uncertainties.

Conditions: 3000 kPa, Coriolis flow meter

CCCCCCCCCC [decane]
Conditions	mass density [kg/m3]
285.3 K, Liquid	736.8 ± 15
313.1 K, Liquid	716.24 ± 14
343.4 K, Liquid	706.6 ± 14
354.5 K, Liquid	682.3 ± 15
373.3 K, Liquid	660.16 ± 13
423.7 K, Liquid	630.21 ± 13
475.8 K, Liquid	588.61 ± 12
523.2 K, Liquid	547.44 ± 12
571.8 K, Liquid	487.16 ± 14
624.2 K, Liquid	365.9 ± 16
673.2 K, Gas	143.74 ± 8.3
700.3 K, Gas	112.44 ± 7
723 K, Gas	96.77 ± 5.3
